Results on five compounds are retold here after US6509367B1 (priority 2001, dated 2003).

Each structure is given as a SMILES string. Like-named read-outs stand apart in the source and are kept apart here.

For assay [1], the system named is mice. The assay can be described thus: Rectal temperature (hypothermia) in mice, compound alone (agonism test). The settings on record: for ED50: Mus musculus, iv. Format: in vivo. As to the method:
(§1) Male ICR mice (25-32 g), purchased from Harlan (Dublin, Va.), were housed in groups of five. All animals were kept in a temperature-controlled (20-22° C.) environment with a 12-hour light-dark cycle (lights on at 7 a.m.). Separate mice were used for testing each drug dose in the in vivo behavioral procedures. The mice were maintained on a […] light: dark cycle, and received food and water ad libitum. Brain tissue for binding studies was obtained from male Sprague-Dawley rats (150-200 g) purchased from Harlan Laboratories (Dublin, Va.).
(§2) Measurement of spontaneous activity in mice occurred in standard activity chambers interfaced with a Digiscan Animal Activity Monitor (Omnitech Electronics, Inc., Columbus, Ohio). A standard tail-flick apparatus (described by Dewey et al., 1970) and a digital thermometer (Fisher Scientific, Pittsburgh, Pa.) were used to measure antinociception and rectal temperature, respectively.
(§3) All drugs were administered to the mice intravenously (i.v.) in the tail vein at a volume of 0.1 ml/10 g.
(§4) Maximum latency of 10 sec was used.

A further assay addresses CB1 receptor (Rattus norvegicus, UniProt P20272). As to the kind of experiment: biochemical. The settings on record: for Ki: 1 nM [3H] CP 55,940, rat whole brain P2 membranes, 30° C. for 1 hr. The assay is classed as binding. As to the method: as §1
All assays, as described briefly below, were performed in triplicate, and the results represent the combined data from three to six individual experiments. Following decapitation and rapid removal of the brain, whole brain was homogenized and centrifuged. The resulting pellet was termed P1. The supernatant was saved and combined with the two subsequent supernatants obtained from washing of the P1 pellet. The combined supernatant fractions were centrifuged, resulting in the P2 pellet. After further incubation and centrifuging, this pellet was resuspended in assay buffer to a protein concentration of approximately 2 mg/ml. The membrane preparation was quickly frozen in a bath solution of dry ice and 2-methylbutane (Sigma Chemical Co., St. Louis, Mo.), then stored at −80° C. for no more than 2 weeks. […] Binding was initiated by the addition of 150 μg of P2 membrane to test tubes containing 1 nM of [3H] […] Following incubation at 30° C. for 1 hr, binding was terminated by addition of ice-cold buffer and vacuum filtration through pretreated filters in a 12-well sampling manifold (Millipore, Bedford, Mass.). After washing, filters were placed into plastic scintillation vials (Packard, Downer Grove, Ill.) and shaken. The quantity of radioactivity present was determined by liquid scintillation spectrometry.

Assay [2] deals with mice. As to the kind of experiment: Spontaneous (locomotor) activity in mice, compound alone (agonism test). Format: in vivo. The settings on record: for change in vivo at 30 mg/kg: at 30 mg/kg i.v.; for Max % inhibit of spontaneous locomotor activity, Compound Alone (in words: stimulation instead of inhibition): doses in mg/kg. The procedure: as §1, §2, §3, §4
Assay [3] deals with mice. The assay can be described thus: Tail-flick antinociception in mice, compound alone (agonism test). Format: in vivo. The note with it: for ED50: Mus musculus, iv. The procedure: as §1, §2, §3, §4
Assay [4] relates to mice. As to the kind of experiment: Spontaneous activity in mice, compound in combination with 3 mg/kg Δ^9-THC (antagonism test). The assay is classed as in vivo. As to the method:
as §1, §2, §3, §4

Where [5] appears, read: read-out: RT: > dose, 50% activity not achieved at this highest dose tested.
[6] abbreviates: Mus musculus, iv, read-out: Max stim of spontaneous locomotor activity, Compound Alone.
[7] abbreviates: Mus musculus, iv, mice, i.v., read-out: SA: > dose, 50% activity not achieved at this highest dose tested.
Where [8] appears, read: read-out: TF: > dose, 50% activity not achieved at this highest dose tested.

Chain of CB1 receptor (P20272 whole entry): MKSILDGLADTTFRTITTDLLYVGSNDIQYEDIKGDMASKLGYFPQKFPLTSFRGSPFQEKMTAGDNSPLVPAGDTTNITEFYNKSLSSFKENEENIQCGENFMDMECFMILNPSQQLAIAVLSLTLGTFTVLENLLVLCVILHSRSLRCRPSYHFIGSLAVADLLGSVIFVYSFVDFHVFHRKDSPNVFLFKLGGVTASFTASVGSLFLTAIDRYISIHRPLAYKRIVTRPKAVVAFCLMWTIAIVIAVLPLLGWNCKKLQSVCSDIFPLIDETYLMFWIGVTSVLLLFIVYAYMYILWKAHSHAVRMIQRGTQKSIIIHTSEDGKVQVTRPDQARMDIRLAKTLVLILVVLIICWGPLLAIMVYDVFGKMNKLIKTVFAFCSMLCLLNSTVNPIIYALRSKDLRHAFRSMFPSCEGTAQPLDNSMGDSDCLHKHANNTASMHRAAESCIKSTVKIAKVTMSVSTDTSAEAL

For `Cc1c(C(=O)NCCF)nn(-c2ccc(Cl)cc2Cl)c1-c1ccc(Cl)cc1` [Compound O-1398, N-(2-fluoroethyl)-5-(4-chlorophenyl)-1-(2,4-dichlorophenyl)-4-methyl-1H-pyrazol-3-carboxamide], the ED50 in the assay on mice [1] (0.5 h, i.v., 30 min post-injection, 95% confidence limits in parentheses, read-out: RT (rectal temperature) ED50) was 8 µmol/kg; with mice [2] (Mus musculus, iv, mice, i.v., 95% confidence limits in parentheses, * = estimated ED50, dose-effect curve not linear, read-out: SA (suppression of spontaneous activity) ED50) it was 7 µmol/kg; with mice [3] (20 min, i.v., 20 min post-injection, 95% confidence limits in parentheses, * = estimated ED50, dose-effect curve not linear, read-out: TF (tail flick, % MPE) ED50), 13 µmol/kg. Besides, the Ki on CB1 receptor (read-out: Ki) worked out at 852 ± 175 nM. Also, the “CB1 binding affinity, fold decrease on shortening the n-pentyl amide” value at CB1 receptor (compared to O-1269) is 27 fold. Also, on CB1 receptor (compared to the n-propyl compound O-1399), the “CB1 binding affinity, further fold reduction” value is 5 fold. In addition, the inhibition in vivo at 10 mg/kg in the assay with mice [2] (Mus musculus, iv, at 10 mg/kg i.v., read-out: Max % inhibit of spontaneous locomotor activity, Compound Alone) worked out at 97%. Moreover, in the assay on mice [2] (at the dose(s) [mg/kg] given in parentheses in the cell), the “Max stim of spontaneous locomotor activity, Compound Alone (in words)” value is given as “None (3, 10 & 30)”.
`CCCCCc1ccc(-c2c(-c3ccc(Cl)cc3Cl)nn(C(=O)NN3CCCCC3)c2Br)cc1` [Compound O-1691, N-(N-Piperdyl)-3-(2,4-dichlrophenyl)-4-(4′-pentylphenyl)-5-bromopyrazole-carboxamide]: the “RT: > dose, 50% activity not achieved at this highest dose tested” value with mice [1] (i.v.) is listed as over 30 mg/kg. Further, the Ki on CB1 receptor (read-out: Ki) came to 1.5 ± 0.22 nM. For the same compound, in the assay on mice [4] (at 0.1 mg/kg i.v.), the “Max % inhibit of spontaneous locomotor activity, Compound with 3 mg/kg Δ^9-THC” value is recorded as 91% (0.1). Also, in the assay on mice [4] (at 0.3 mg/kg i.v., analog 10 min before Δ^9-THC), the “SA: maximum % antagonism of 3 mg/kg Δ^9-THC” value is reported as 6% (0.3). In the assay with mice [4] (at 3 mg/kg i.v.), the “Max stim of spontaneous locomotor activity, Compound with 3 mg/kg Δ^9-THC” value is 150% (3). Also, the “Max stim of spontaneous locomotor activity, Compound Alone” value in the assay on mice [2] (at 1 mg/kg i.v.) was 66% (1). Also, the “Max % inhibit of spontaneous locomotor activity, Compound Alone” value in the assay on mice [2] (at 3 mg/kg i.v.) is on record as 15% (3). The “SA: > dose, 50% activity not achieved at this highest dose tested” value in the assay with mice [2] (mice, i.v.) is listed as over 30 mg/kg. Besides, the “TF: > dose, 50% activity not achieved at this highest dose tested” value in the assay on mice [3] (i.v.) was over 30 mg/kg.
In the case of `CCCCC(C)c1c(C)c(C(=O)NN2CCCCC2)nn1-c1ccc(Cl)cc1Cl` (stereo not shown) [Compound O-1559], the ED50 with mice [1] (setting [5]), in the assay with mice [2] (setting [7]) and in the assay with mice [3] (setting [8]) was over 30 mg/kg in each case. In addition, the Ki on CB1 receptor (read-out: Ki) turned out to be 233 nM. The change in vivo at 30 mg/kg with mice [2] (setting [6]) worked out at 118%. In addition, the “Max % inhibit of spontaneous locomotor activity, Compound Alone (in words: stimulation instead of inhibition)” value in the assay on mice [2] is given as “stim at 3, 10 & 30”.
For the compound `Cc1c(COCc2cccc3ccccc23)nn(-c2ccc(Cl)cc2Cl)c1-c1ccc(Cl)cc1` [Compound O-852], the ED50 with mice [1] (setting [5]), in the assay on mice [2] (setting [7]) and in the assay on mice [3] (setting [8]) was over 10 mg/kg throughout. For the same compound, the affinity at CB1 receptor (Ki (nM)), expressed as Ki, was 78 ± 10 nM. The change in vivo at 1 mg/kg with mice [2] (Mus musculus, iv, at 1 mg/kg i.v., read-out: Max stim of spontaneous locomotor activity, Compound Alone) was 52%. Moreover, the “stimulation of locomotor activity” value in the assay on mice [2] (compound alone, dose not given (see Table 5)) is given as 52%. Also, the “Max % inhibit of spontaneous locomotor activity, Compound Alone (in words: stimulation instead of inhibition)” value in the assay on mice [2] is recorded as “stim at 1, 3 & 10”.
Turning to `Cc1c(C(=O)NN2CCCCC2)nn(-c2ccccc2)c1-c1ccc(Cl)cc1` [Compound O-1300], the ED50 in the assay on mice [1] (setting [5]), in the assay on mice [2] (setting [7]) and in the assay on mice [3] (setting [8]) was over 30 mg/kg throughout. Also, at CB1 receptor (Ki (nM)), the Ki worked out at 150 ± 20 nM. The “CB1 binding affinity, fold less than SR 141716A” value at CB1 receptor (compared to SR 141716A) is 24 fold. Further, the change in vivo at 30 mg/kg with mice [2] (setting [6]) was 54%. For the same compound, the “Max % inhibit of spontaneous locomotor activity, Compound Alone (in words: stimulation instead of inhibition)” value in the assay on mice [2] was “stim at 30”.
